From patent publication US7585895B2, “Therapeutic substituted cyclopentanes” (Allergan, Inc., priority 2005, dated 2009) come the findings set out here.

Holding throughout (assay type): cell-based
Assay [1] concerns the target T1, hEP4/Gqs5 (Homo sapiens, UniProt P35408).
T1 construct: expressed in transfected cells
Description: FLIPR calcium signal, EP4. The following applies: HEK-293(EBNA); for EC50: read-out: Ca2+ Signal-EC50 (nM) EP4. The procedure: (§1) HEK-293(EBNA) cells, stably expressing one type or subtype of recombinant human prostaglandin receptors (prostaglandin receptors expressed: hDP/Gqs5; hEP1; hEP2/Gqs5; hEP3A/Gqi5; hEP4/Gqs5; hFP; hIP; hTP), were cultured in 100 mm culture dishes in high-glucose DMEM medium containing 10% fetal bovine serum, 2 mM 1-glutamine, 250 μg/ml geneticin (G418) and 200 μg/ml hygromycin B as selection markers, and 100 units/ml penicillin G, 100 μg/ml streptomycin and 0.25 μg/ml amphotericin B.
(§2) Cells were seeded at a density of 5×10^4 cells per well in Biocoat® Poly-D-lysine-coated black-wall, clear-bottom 96-well plates (Becton-Dickinson) and allowed to attach overnight in an incubator at 37° C. Cells were then washed two times with HBSS-HEPES buffer (Hanks Balanced Salt Solution without bicarbonate and phenol red, 20 mM HEPES, pH 7.4) using a Denley Cellwash plate washer (Labsystems). After 45 minutes of dye-loading in the dark, using the calcium-sensitive dye Fluo-4 AM at a final concentration of 2 μM, plates were washed four times with HBSS-HEPES buffer to remove excess dye leaving 100 μl in each well. Plates were re-equilibrated to 37° C. for a few minutes.
(§3) Cells were excited with an Argon laser at 488 nm, and emission was measured through a 510-570 nm bandwidth emission filter (FLIPR™, Molecular Devices, Sunnyvale, Calif.). Drug solution was added in a 50 μl volume to each well to give the desired final concentration. The peak increase in fluorescence intensity was recorded for each well. On each plate, four wells each served as negative (HBSS-HEPES buffer) and positive controls (standard agonists: BW245C (hDP); PGE2 (HEP1; hEP2/Gqs5; hEP3A/Gqi5; hEP4/Gqs5); PGF2α (hFP); carbacyclin (hIP); U-46619 (hTP), depending on receptor). The peak fluorescence change in each drug-containing well was then expressed relative to the controls.
(§4) Compounds were tested in a high-throughput (HTS) or concentration-response (CoRe) format. In the HTS format, forty-four compounds per plate were examined in duplicates at a concentration of 10^−5 M. To generate concentration-response curves, four compounds per plate were tested in duplicates in a concentration range between 10^−5 and 10^−11 M. The duplicate values were averaged. In either, HTS or CoRe format each compound was tested on at least 3 separate plates using cells from different passages to give an n≧3.

The target in assay [2] is T2, hTP (Homo sapiens, UniProt P21731).
T2 construct: expressed in transfected cells
T2 sequence (P21731 1-343): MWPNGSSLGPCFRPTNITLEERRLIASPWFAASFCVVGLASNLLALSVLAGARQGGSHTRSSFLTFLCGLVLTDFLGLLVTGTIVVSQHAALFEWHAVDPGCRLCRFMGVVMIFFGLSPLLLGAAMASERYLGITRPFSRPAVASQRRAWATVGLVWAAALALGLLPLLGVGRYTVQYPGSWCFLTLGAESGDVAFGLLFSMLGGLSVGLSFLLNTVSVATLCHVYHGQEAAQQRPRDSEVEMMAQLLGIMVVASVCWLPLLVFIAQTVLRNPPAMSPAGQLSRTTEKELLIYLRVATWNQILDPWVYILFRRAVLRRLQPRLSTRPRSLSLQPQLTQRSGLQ
As to the kind of experiment: FLIPR calcium signal, TP. The following applies: HEK-293(EBNA). The procedure:
as §1, §2, §3, §4

The target in assay [3] is EP2 (Homo sapiens, UniProt P43116). As to the kind of experiment: cAMP assay, HEK-EBNA cells expressing EP2. Details: expressed in transfected cells; host or cells: HEK-EBNA. The settings on record: value in parentheses in EP2 column, read-out: EP2 EC50 (nM), measurement of cAMP (data in parentheses). The procedure:
A 384-well drug plate was prepared to contain 6 test compounds, PGE2 and cAMP in 16 serial dilutions in triplicate, using a Biomek station. HEK-EBNA cells expressing a target PG receptor subtype (EP2 or EP4) were suspended in a stimulation buffer (HBSS, 0.1% BSA, 0.5 mM IBMX and 5 mM HEPES, pH 7.4) in a density of 10^4 cells/5 μl. The reaction was initiated by mixing 5 μL drug dilutions with 5 μl of HEK-EBNA cells in a well, carried out for 30 min at room temperature, and followed by the addition of 5 μl anti-cAMP acceptor beads in the control buffer with Tween-20 (25 mM NaCl, 0.03% Tween-20, 5 mM HEPES, pH7.4). After 30 min in the dark at room temperature, the mixtures were incubated with 15 μl biotinylated-cAMP/strepavidin donor beads in Lysis/Detection buffer (0.1% BSA, 0.3% Tween-20 and 5 mM HEPES, pH7.4) for 45 min at the room temperature. Fluorescence changes were read using a Fusion-alpha HT microplate reader.
On the technique in general: cAMP levels reflect the balance of adenylyl cyclase and phosphodiesterase activity.

Assay [4] deals with T3, hEP3A/Gqi5 (Homo sapiens, UniProt P43115).
T3 construct: expressed in transfected cells
T3 sequence (P43115 1-390): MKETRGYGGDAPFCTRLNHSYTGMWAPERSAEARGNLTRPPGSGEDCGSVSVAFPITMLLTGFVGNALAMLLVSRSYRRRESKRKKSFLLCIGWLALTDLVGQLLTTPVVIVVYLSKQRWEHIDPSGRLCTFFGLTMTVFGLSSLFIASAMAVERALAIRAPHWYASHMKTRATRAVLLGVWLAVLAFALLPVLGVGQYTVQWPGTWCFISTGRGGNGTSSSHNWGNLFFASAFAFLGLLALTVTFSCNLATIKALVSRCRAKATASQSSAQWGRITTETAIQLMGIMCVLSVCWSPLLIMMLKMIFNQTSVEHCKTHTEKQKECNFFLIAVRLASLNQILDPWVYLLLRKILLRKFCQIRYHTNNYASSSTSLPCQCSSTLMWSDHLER
As to the kind of experiment: FLIPR calcium signal, EP3. The settings on record: HEK-293(EBNA); for EC50: read-out: Ca2+ Signal-EC50 (nM) EP3. The procedure:
as §1, §2, §3, §4

For assay [5], the target named is T4, hEP2/Gqs5 (Homo sapiens, UniProt P43116).
T4 construct: expressed in transfected cells
T4 sequence (P43116 whole entry): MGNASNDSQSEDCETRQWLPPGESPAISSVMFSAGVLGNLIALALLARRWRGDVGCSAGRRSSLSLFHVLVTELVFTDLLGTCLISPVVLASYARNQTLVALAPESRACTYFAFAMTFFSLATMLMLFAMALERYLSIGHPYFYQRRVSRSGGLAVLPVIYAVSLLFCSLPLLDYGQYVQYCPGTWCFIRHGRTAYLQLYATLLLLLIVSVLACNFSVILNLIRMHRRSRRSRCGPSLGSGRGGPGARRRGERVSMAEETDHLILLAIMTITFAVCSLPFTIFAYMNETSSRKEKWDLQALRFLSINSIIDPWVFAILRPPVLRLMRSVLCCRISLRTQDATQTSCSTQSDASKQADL
Description: FLIPR calcium signal, EP2. The following applies: HEK-293(EBNA), value outside parentheses, read-out: Ca2+ Signal-EC50 (nM) EP2. The procedure:
as §1, §2, §3, §4

The target in assay [6] is T5, hEP1 (Homo sapiens, UniProt P34995).
T5 construct: expressed in transfected cells
T5 sequence (P34995 1-402): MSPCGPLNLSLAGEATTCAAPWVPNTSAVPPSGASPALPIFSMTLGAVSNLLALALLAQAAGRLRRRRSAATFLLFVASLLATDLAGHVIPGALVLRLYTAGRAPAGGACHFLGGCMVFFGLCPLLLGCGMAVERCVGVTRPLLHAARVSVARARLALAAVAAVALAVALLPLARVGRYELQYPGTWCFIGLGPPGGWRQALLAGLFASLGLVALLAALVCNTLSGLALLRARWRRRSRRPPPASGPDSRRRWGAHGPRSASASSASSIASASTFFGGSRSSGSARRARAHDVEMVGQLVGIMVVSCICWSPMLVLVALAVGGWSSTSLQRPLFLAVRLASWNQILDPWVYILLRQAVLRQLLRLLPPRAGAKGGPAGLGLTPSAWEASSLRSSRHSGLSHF
Description: FLIPR calcium signal, EP1. The following applies: HEK-293(EBNA). The procedure: as §1, §2, §3, §4

T1 sequence (P35408 whole entry): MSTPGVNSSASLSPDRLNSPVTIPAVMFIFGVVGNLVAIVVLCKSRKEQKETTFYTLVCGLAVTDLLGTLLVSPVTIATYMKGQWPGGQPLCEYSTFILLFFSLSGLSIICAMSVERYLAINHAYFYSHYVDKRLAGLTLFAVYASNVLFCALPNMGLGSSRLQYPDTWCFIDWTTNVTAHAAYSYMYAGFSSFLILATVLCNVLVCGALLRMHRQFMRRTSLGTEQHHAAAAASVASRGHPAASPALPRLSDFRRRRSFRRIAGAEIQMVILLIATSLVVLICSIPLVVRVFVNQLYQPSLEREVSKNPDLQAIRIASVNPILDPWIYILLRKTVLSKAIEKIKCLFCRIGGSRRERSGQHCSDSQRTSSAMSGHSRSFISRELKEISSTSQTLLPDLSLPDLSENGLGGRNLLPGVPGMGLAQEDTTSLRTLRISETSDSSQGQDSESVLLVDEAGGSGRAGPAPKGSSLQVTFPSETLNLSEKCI
EP2, sequence (P43116 whole entry): as the sequence (P43116 whole entry) above

For orientation: EC50 means the concentration that produces a half-maximal response. For the compound `CCCCCC(O)c1ccc([C@@H]2[C@@H](C/C=C\CCCC(=O)O)[C@H](Cl)C[C@H]2O)cc1` (single isomer, unassigned) [Entry 13], the EC50 in assay [1] is > 10000 nM; in assay [3], 3 nM; in assay [4], 3000 nM; in assay [5], 11 nM. The “Ca2+ Signal-EC50 (nM) TP” value in assay [2] is listed as “not active”. The “Ca2+ Signal-EC50 (nM) EP1” value in assay [6] is listed as “not active”.

For the compound `CCCCCC(O)c1ccc([C@@H]2[C@@H](CCCc3ccc(C(=O)O)s3)[C@H](Cl)C[C@H]2O)cc1` (stereo partly drawn) [Entry 2, 5-(3-{(1R,2S,3R,5R)-5-Chloro-3-hydroxy-2-[4-(1-hydroxy-hexyl)-phenyl]-cyclopentyl}-propyl)-thiophene-2-carboxylic acid], in assay [1], the “Ca2+ Signal-EC50 (nM) EP4” value is “not active”. Besides, in assay [2], the “Ca2+ Signal-EC50 (nM) TP” value was “not active”. Moreover, the 50% effective concentration (EC50) was 2 nM in assay [3], 348 nM in assay [4], 4 nM in assay [5] and 664 nM in assay [6] (read-out: Ca2+ Signal-EC50 (nM) EP1).

On to `CCCC1(C(O)c2cccc([C@@H]3[C@@H](Cc4cccc(CCC(=O)O)c4)[C@H](Cl)C[C@H]3O)c2)CCC1` (stereo partly drawn) [Entry 4, 3-[3-((1R,2S,3R,5R)-5-Chloro-3-hydroxy-2-{3-[hydroxy-(1-propyl-cyclobutyl)-methyl]-phenyl}-cyclopentylmethyl)-phenyl]-propionic acid], for which the values for the EC50 in assay [1], in assay [3] and in assay [5] were > 10000 nM, 69 nM and 4110 nM, respectively. Also, the “Ca2+ Signal-EC50 (nM) TP” value in assay [2] is recorded as “not active”. In assay [4], the “Ca2+ Signal-EC50 (nM) EP3” value was “not active”. Besides, the “Ca2+ Signal-EC50 (nM) EP1” value in assay [6] is “not active”.

With `CCCCCC(O)c1ccc([C@@H]2[C@@H](CCCc3ncc(C(=O)O)s3)[C@H](Cl)C[C@H]2O)cc1` (stereo partly drawn) [Entry 5, 2-(3-{(1R,2S,3R,5R)-5-Chloro-3-hydroxy-2-[4-(1-hydroxy-hexyl)-phenyl]-cyclopentyl}-propyl)-thiazole-5-carboxylic acid], the EC50 is > 10000 nM in assay [1], 1060 nM in assay [3] and 619 nM in assay [5]. Besides, the “Ca2+ Signal-EC50 (nM) TP” value in assay [2] is recorded as “not active”. Besides, in assay [4], the “Ca2+ Signal-EC50 (nM) EP3” value is on record as “not active”. Further, the “Ca2+ Signal-EC50 (nM) EP1” value in assay [6] is reported as “not active”.

Take `CCCCCC(O)c1ccc([C@@H]2[C@@H](C/C=C\CCCC(=O)O)[C@@H](Cl)C[C@H]2O)cc1` (stereo partly drawn) [Entry 9, (Z)-7-{(1R,2S,3R,5S)-5-Chloro-3-hydroxy-2-[4-(1-hydroxy-hexyl)-phenyl]-cyclopentyl}-hept-5-enoic acid]: the EC50 is 947 nM in assay [1], 324 nM in assay [3], 7230 nM in assay [4] and 242 nM in assay [5]. Also, the “Ca2+ Signal-EC50 (nM) TP” value in assay [2] was “not active”. The “Ca2+ Signal-EC50 (nM) EP1” value in assay [6] is recorded as “not active”.

As for `CCCCCC(O)c1ccc([C@@H]2[C@@H](CCCCCCC(=O)O)[C@H](Cl)C[C@H]2O)cc1` (stereo partly drawn) [Entry 14, 7-{(1R,2S,3R,5R)-5-Chloro-3-hydroxy-2-[4-(1-hydroxy-hexyl)-phenyl]-cyclopentyl}-heptanoic acid], the EC50 is > 10000 nM in assay [1], 76 nM in assay [3], 477 nM in assay [4] and 28 nM in assay [5]. Moreover, in assay [2], the “Ca2+ Signal-EC50 (nM) TP” value is given as “not active”. Moreover, the “Ca2+ Signal-EC50 (nM) EP1” value in assay [6] is reported as “not active”.

Consider `O=C(O)CCC/C=C\C[C@@H]1[C@@H](c2ccc(C(O)CCC3CCCCC3)cc2)[C@H](O)C[C@H]1Cl` (stereo partly drawn) [Entry 15, (Z)-7-{(1R,2S,3R,5R)-5-Chloro-2-[4-(3-cyclohexyl-1-hydroxy-propyl)-phenyl]-3-hydroxy-cyclopentyl}-hept-5-enoic acid], for which the “Ca2+ Signal-EC50 (nM) EP4” value in assay [1] is listed as “not active”. The “Ca2+ Signal-EC50 (nM) TP” value in assay [2] is listed as “not active”. Besides, the EC50 in assay [3] worked out at 176 nM; in assay [4], 2220 nM; in assay [5] it was 495 nM. Also, in assay [6], the “Ca2+ Signal-EC50 (nM) EP1” value was “not active”.

`O=C(O)CCCCCC[C@@H]1[C@@H](c2ccc(C(O)CCC3CCCCC3)cc2)[C@H](O)C[C@H]1Cl` (stereo partly drawn) [Entry 16, 7-{(1R,2S,3R,5R)-5-Chloro-2-[4-(3-cyclohexyl-1-hydroxy-propyl)-phenyl]-3-hydroxy-cyclopentyl}-heptanoic acid]: in assay [1], the “Ca2+ Signal-EC50 (nM) EP4” value is “not active”. The “Ca2+ Signal-EC50 (nM) TP” value in assay [2] was “not active”. Further, the EC50 came out at 5260 nM in assay [3], 1710 nM in assay [4] and 2330 nM in assay [5]. Besides, the “Ca2+ Signal-EC50 (nM) EP1” value in assay [6] is “not active”.

Turning to `O=C(O)CCCCCC[C@@H]1[C@@H](c2ccc(C(O)CC3CCCCC3)cc2)[C@H](O)C[C@H]1Cl` (stereo partly drawn) [Entry 18, 7-{(1R,2S,3R,5R)-5-Chloro-2-[4-(2-cyclohexyl-1-hydroxy-ethyl)-phenyl]-3-hydroxy-cyclopentyl}-heptanoic acid], the EC50 in assay [1] was > 10000 nM; in assay [3] it was 2660 nM; in assay [5], 2250 nM. Besides, the “Ca2+ Signal-EC50 (nM) TP” value in assay [2] was “not active”. In addition, in assay [4], the “Ca2+ Signal-EC50 (nM) EP3” value was “not active”. Moreover, in assay [6], the “Ca2+ Signal-EC50 (nM) EP1” value is recorded as “not active”.
